How the values were obtained:
hS1P1 receptors = biological target: T1, hS1P1 receptors (Homo sapiens, UniProt P21453); assay: Intracellular Ca2+ mobilization in CHO cells expressing human S1P receptors (hS1P1); type: cell-based; conditions: read-out: S1P1 (EC50 class, intracellular Ca2+ mobilization)
T1 construct: expressed in transfected cells; host or cells: CHO cells (Geneticin-selected)
Experimental: (§1) Test for the Ability of Test Compounds to Induce Intracellular Ca^2+ Mobilization in Cells Expressing Human S1P (Sphingosine-1-Phosphate) Receptors
(§2) CHO cells expressing human S1P receptors (i.e., CHO cells expressing hS1P1 receptors or hS1P3 receptors) were subcultured on Ham's F-12 medium supplemented with 10% fetal bovine serum and 200 μg/mL Geneticin. The cells were seeded on a 96-well black clear bottom plate (COSTAR) at 4×10^4 cells/well and were cultured overnight at 37° C. in 5% CO2. A fluorescent reagent that emits fluorescence upon binding to Ca^2+ (Calcium Screening Kit (DOJINDO)) was added to the culture and the cells were further cultured for 60 min at 37° C. in 5% CO2. After culturing, microplate spectrofluorometer (FLEX station, MOLECULAR DEVICE) was used to measure the fluorescence intensity at an excitation wavelength of 485 nm and a detection wavelength of 525 nm. S1P or a test compound adjusted with cultural medium to a concentration 10 times higher than the final concentration (final DMSO concentration=0.1%). Each test compound solution was added 18 sec. after beginning of the measurement of fluorescence. The fluorescence intensity was measured every 1.5 sec for 100 sec. For each test compound, the difference between the maximum fluorescence intensity and the minimum fluorescence intensity (i.e., increase in fluorescence) was determined from the measurements. The rate of fluorescence increase (%) for each test compound was calculated by the difference (100%) of the fluorescence increase between solvent only and S1P (10^−6M). Using this value as an index of the ability of the test compound to induce intracellular Ca^2+ mobilization, EC50 was determined by PRISM software (GraphPad).

hS1P4 receptors = biological target: T2, hS1P4 receptors (Homo sapiens, UniProt O95977); assay: Activation of extracellular regulatory kinase (ERK) in CHO cells expressing hS1P4 receptors; type: cell-based
T2 construct: expressed in transfected cells; host or cells: CHO cells (Geneticin-selected)
T2 sequence (O95977 1-384): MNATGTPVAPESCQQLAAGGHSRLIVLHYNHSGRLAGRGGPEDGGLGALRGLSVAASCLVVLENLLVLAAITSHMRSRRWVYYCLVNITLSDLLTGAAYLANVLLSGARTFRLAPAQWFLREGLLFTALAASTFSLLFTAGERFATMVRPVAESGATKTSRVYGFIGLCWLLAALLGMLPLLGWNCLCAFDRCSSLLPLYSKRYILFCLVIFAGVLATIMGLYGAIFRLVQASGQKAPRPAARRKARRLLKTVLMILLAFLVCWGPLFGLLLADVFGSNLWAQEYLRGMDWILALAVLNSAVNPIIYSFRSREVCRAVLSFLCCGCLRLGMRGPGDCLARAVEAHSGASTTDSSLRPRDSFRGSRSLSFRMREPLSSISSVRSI
Experimental: Test for the Ability of Test Compounds to Induce Activation of Extracellular Regulatory Kinase (ERK) in Cells Expressing Human S1P Receptors
CHO cells expressing human S1P receptors (i.e., CHO cells expressing hS1P4 receptors) were subcultured on Ham's F-12 medium supplemented with 10% fetal bovine serum and 200 μg/mL Geneticin. The cells were seeded on a 6-well cell culture plate (COSTAR) at 3×10^5 cells/well and were cultured overnight at 37° C. in 5% CO2. On the following day, the medium was replaced with FBS-free Ham's F-12 medium (containing 0.1% fatty acid-free bovine serum albumin) and the cells were cultured overnight at 37° C. in 5% CO2. S1P or a test compound adjusted with Ham's F-12 medium (with 0.1% fatty acid-free bovine serum albumin) to a concentration 10 times higher than the final concentration (final DMSO concentration=0.1%). Each test compound solution was added to this culture plate. The cells were cultured for 5 min at 37° C. in 5% CO2. The medium was removed and the cells were washed with a 200 μmol/L ice-cold PBS containing Na3VO4. A lysis buffer (20 mmol/L Tris-HCl pH 7.5, 1% Triton X-100, 1 mmol/L EDTA, 1 mmol/L EGTA, 0.5 mmol/L Na3VO4, 0.1% β-mercaptoethanol, 50 mmol/L NaF, 5 mmol/L Na4O7P3, 10 mmol/L C3H7O6Na, 1 μmol/L Microcystin LR, 1× Complete Protease Inhibitor Cocktail (ROCHE)) was then added to the cells and the reaction was carried out on ice for 5 min to lyse the cells. The cell lysate was subjected to sodium dodecyl sulfate-polyacrylamide gel electrophoresis (SDS-PAGE) to separate proteins. The proteins were transferred to a PVDF membrane (Hybond-P, Amersham Biosciences). The membrane was reacted overnight at 4° C. with anti-phospho ERK (p42/44 MAPK) monoclonal antibody (E10, Cell Signaling Technologies) diluted 1000-fold, and was subsequently reacted for 1 hour at room temperature with alkaline phosphatase-labeled anti-mouse IgG antibody (Molecular Probe) diluted 6000-fold. After washing with 20 mmol/L Tris-HCl and 150 mmol/L NaCl solution, the PVDF membrane was fluorostained with DDAO phosphate (DyeChrome Western Blot Stain Kit, Molecular Probe), a fluorescent substrate of alkaline phosphatase. The fluorescence was detected using a variable image analyzer (Typhoon 8600, Amersham Biosciences). The detected signal of phosphorylated ERK was quantified using ImageQuant software (Molecular Dynamics). The rate of ERK activation (%) for each test compound was calculated by the difference (100%) of the signal intensity between solvent only and S1P (10^−6 mol/L).

hS1P3 receptors = biological target: T3, hS1P3 receptors (Homo sapiens, UniProt Q99500); assay: Intracellular Ca2+ mobilization in CHO cells expressing human S1P receptors (hS1P3); type: cell-based; conditions: read-out: S1P3 (EC50 class, intracellular Ca2+ mobilization)
T3 construct: expressed in transfected cells; host or cells: CHO cells (Geneticin-selected)
T3 sequence (Q99500 whole entry): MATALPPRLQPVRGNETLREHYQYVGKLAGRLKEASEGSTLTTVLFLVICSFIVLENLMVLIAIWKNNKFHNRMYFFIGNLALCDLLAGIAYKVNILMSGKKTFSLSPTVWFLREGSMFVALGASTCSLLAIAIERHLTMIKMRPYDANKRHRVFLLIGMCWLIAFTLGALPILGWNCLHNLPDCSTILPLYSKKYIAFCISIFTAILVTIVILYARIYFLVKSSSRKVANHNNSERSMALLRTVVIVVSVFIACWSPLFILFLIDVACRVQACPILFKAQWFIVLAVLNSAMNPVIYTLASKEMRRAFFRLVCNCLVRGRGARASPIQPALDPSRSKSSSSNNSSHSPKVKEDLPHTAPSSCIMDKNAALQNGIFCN
Experimental: as §1, §2

[1] = tested on: host vs. graft rejection in mice; assay: Inhibitory effects on host vs. graft rejection in mice (right popliteal lymph node weight); type: in vivo, C3H/HeN mice; conditions: Mus musculus
Experimental: Inhibitory Effects of Test Compounds on Host Vs. Graft Rejection in Mice
This experiment was performed according to the method described in Transplantation 55(3) (1993): 578-591. Spleens were collected from 6 to 16 week old male BALB/c mice (CHARLES RIVER JAPAN). The spleens were placed in an RPMI-1640 medium (SIGMA) and were gently pressed between two slide glasses and then passed through a cell strainer (70 μm, Falcon) to form a cell suspension. The suspension was then centrifuged and the supernatant was discarded. An ammonium chloride-Tris isotonic buffer was added to the suspension to lyse erythrocytes. The cells were then centrifuged three times in RPMI-1640 medium for washing and were resuspended in an RPMI-1640 medium. To this suspension, mitomycin C (KYOWA HAKKO KOGYO Co., Ltd.) was added to a final concentration of 25 μg/mL and the suspension was incubated for 30 minutes at 37° C. in a 5% CO2 atmosphere. The cells were centrifuged three times in RPMI-1640 medium for washing and were resuspended in an RPMI-1640 medium so that the medium would contain 2.5×10^8 cells/mL. This suspension served as a “stimulation cell suspension.” Using a 27 G needle with a microsyringe (Hamilton), 20 μL (5×10^6 cells/mouse) of the stimulation cell suspension was subcutaneously injected into the right hind footpad of 6 to 8 week old male C3H/HeN mice (CLEA JAPAN). Normal control group was injected with RPMI-1640 medium alone. 4 days after the injection, right popliteal lymph nodes were collected and were weighed on a Mettler AT201 electronic scale (METTLER TOLEDO Co., Ltd.). Each animal was intraperitoneally administered a test compound once a day for four consecutive days starting on the day of the injection of the stimulation cells (i.e., total of 4 times). Control groups were administered the same vehicle as that used in the preparation of each test compound. The inhibition (%) was determined using the following formula {[Weight of right popliteal lymph nodes of positive control group]−[Weight of right popliteal lymph nodes of test compound group]×100}/{[Weight of right popliteal lymph nodes of positive control group]−[Weight of right popliteal lymph nodes of normal control group]} Formula 1

T1 sequence (P21453 whole entry): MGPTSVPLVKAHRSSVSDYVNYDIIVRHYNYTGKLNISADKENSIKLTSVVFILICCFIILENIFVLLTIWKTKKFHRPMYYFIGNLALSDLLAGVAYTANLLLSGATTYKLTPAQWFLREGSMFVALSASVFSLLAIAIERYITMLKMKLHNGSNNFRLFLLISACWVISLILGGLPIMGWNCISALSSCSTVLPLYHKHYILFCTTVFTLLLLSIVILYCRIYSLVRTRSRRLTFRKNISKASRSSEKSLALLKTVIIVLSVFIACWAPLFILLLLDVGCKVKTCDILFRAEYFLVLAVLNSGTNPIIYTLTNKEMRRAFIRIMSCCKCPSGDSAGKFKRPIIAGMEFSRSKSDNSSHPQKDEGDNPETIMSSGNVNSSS

| Compound | EC50 (hS1P1 receptors) | Induction effect of ERK activation on hS1P-expressing CHO cells (Activation rate (%) relative to the activated ERK at S1P10-6 mol/L) (hS1P4 receptors; Compound Conc. 1 nmol/L) | Induction effect of ERK activation on hS1P-expressing CHO cells (Activation rate (%) relative to the activated ERK at S1P10-6 mol/L) (hS1P4 receptors; Compound Conc. 10 nmol/L) | EC50 (hS1P3 receptors) | inhibition in vivo at 0.03 mg/kg ([1]; Dose 0.03 mg/kg) | inhibition in vivo at 0.1 mg/kg ([1]; Dose 0.1 mg/kg) |
| --- | --- | --- | --- | --- | --- | --- |
| NC(CO)(CCCc1ccc(Sc2cccc(OCc3ccccc3)c2)cc1Cl)COP(=O)(O)O (stereo not shown) [Example 236, 2-amino-5-[4-(3-benzyloxyphenylthio)-2-chlorophenyl]-2-hydroxymethylpentylphosphonate monoester] | 10 to 100 nM | 8.0% | 119.5% | 10 to 100 nM | 73% |  |
| NC(CO)(CCc1ccc(Sc2cccc(OCc3ccccc3)c2)cc1Cl)COP(=O)(O)O (stereo not shown) [Example 237, 2-amino-4-[4-(3-benzyloxyphenylthio)-2-chlorophenyl]-2-hydroxymethylbutylphosphonate monoester] | < 10 nM | 35.8% | 80.7% | < 10 nM |  | 75% |

From patent US7759326B2, “Aminophosphonic acid derivative, salt thereof, and modulator of S1P receptor” (Kyorin Pharmaceutical Co., Ltd., priority 2003, dated 2010)
